Data on twelve compounds can be found in patent US20230159527A1, “COMPOUNDS AS BCL-2 INHIBITORS” (Fochon Pharmaceuticals, Ltd., priority 2020, published 2023).

Holding throughout (format): cell-based
For test [1], the system named is Toledo cells. Description: Cell proliferation assay, Toledo cells (MTS, 72 h). The note with it: Homo sapiens, Toledo cells, MTS, read-out: Toledo IC50. The method in brief: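 Toledo cells (30000/well, RPMI-1640 with 10% FBS) were preincubated for 4 h. They were then exposed to nine compound concentrations from 10000 to 1.5 nM for 72 h at 37 °C, 5% CO2. MTS was added for 2 h and absorbance read at 490 nm to give IC50.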

Test [2] has as its system RS4;11-BCL-2 G101V cells. Description: Cell proliferation assay, engineered RS4;11 cells stably overexpressing BCL-2 G101V (MTS, 168 h). The conditions noted are these: Homo sapiens, RS4-11, 168 h, read-out: RS4, 11 BCL2- G101V. A digest of the protocol: (§1)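 Proliferation read-out: MTS for exactly 2 h, then absorbance at 490 nm, with IC50 derived from the fit. Before this, engineered RS4;11 lines (BCL-2 G101V, F104L; 5000 cells/well) were exposed 168 h at 37 °C to serially diluted compound, final 1.4–10000 nM.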

The subject of test [3] is RS4;11-BCL-2 F104L cells. Put plainly: Cell proliferation assay, engineered RS4;11 cells stably overexpressing BCL-2 F104L (MTS, 168 h). The note with it: Homo sapiens, read-out: RS4, 11 BCL2-F104L. The method in brief: as §1

The structures appear in SMILES notation.

Turning to `CC(C)c1ccccc1[C@@H]1CCCN1C1CC2(CCN(c3ccc(C(=O)NS(=O)(=O)c4cc5c(c([N+](=O)[O-])c4)N[C@@H]([C@H]4CC[C@](C)(O)CC4)CO5)c(Oc4cc5cc[nH]c5nc4OC[C@H]4CCCN4C)c3)CC2)C1` (single isomer, unassigned) [Example D-130, N-(((S)-3-((1r,4S)-4-hydroxy-4-methylcyclohexyl)-5-nitro-3,4-dihydro-2H-benzo[b][1,4]oxazin-7-yl)sulfonyl)-4-(2-((R or S)-2-(2-isopropylphenyl)pyrrolidin-1-yl)-7-azaspiro[3.5]nonan-7-yl)-2-((6-(((R)-1-methylpyrrolidin-2-yl)methoxy)-1H-pyrrolo[2,3-b]pyridin-5-yl)oxy)benzamide], the IC50 in test [1], in test [2] and in test [3] was 1 nM each time.

As to `CC(C)c1ccccc1[C@@H]1CCCN1C1CC2(CCN(c3ccc(C(=O)NS(=O)(=O)c4cc5c(c([N+](=O)[O-])c4)N[C@@H]([C@H]4CC[C@](C)(O)CC4)CO5)c(Oc4cc5cc[nH]c5nc4O[C@@H]4C[C@@H](CO)N(C)C4)c3)CC2)C1` (single isomer, unassigned) [Example D-250, N-(((S)-3-((1r,4S)-4-hydroxy-4-methylcyclohexyl)-5-nitro-3,4-dihydro-2H-benzo[b][1,4]oxazin-7-yl)sulfonyl)-2-((6-(((3R,5S)-5-(hydroxymethyl)-1-methylpyrrolidin-3-yl)oxy)-1H-pyrrolo[2,3-b]pyridin-5-yl)oxy)-4-(2-((R or S)-2-(2-isopropylphenyl)pyrrolidin-1-yl)-7-azaspiro[3.5]nonan-7-yl)benzamide], the IC50 in test [1], in test [2] and in test [3] was 1 nM each time.

Turning to `CC(C)c1ccccc1[C@@H]1CCCN1C1CC2(CCN(c3ccc(C(=O)NS(=O)(=O)c4cc5c(c([N+](=O)[O-])c4)N[C@@H]([C@H]4CC[C@](C)(O)CC4)CO5)c(Oc4cc5cc[nH]c5nc4OC[C@H]4COCCN4)c3)CC2)C1` (single isomer, unassigned) [Example D-216, N-(((S)-3-((1r,4S)-4-hydroxy-4-methylcyclohexyl)-5-nitro-3,4-dihydro-2H-benzo[b][1,4]oxazin-7-yl)sulfonyl)-4-(2-((R or S)-2-(2-isopropylphenyl)pyrrolidin-1-yl)-7-azaspiro[3.5]nonan-7-yl)-2-((6-(((R)-morpholin-3-yl)methoxy)-1H-pyrrolo[2,3-b]pyridin-5-yl)oxy)benzamide], the IC50 in test [1], in test [2] and in test [3] was 1 nM in each case.

In the case of `CC(C)c1ccccc1[C@@H]1CCCN1C1CC2(CCN(c3ccc(C(=O)NS(=O)(=O)c4cc5c(c([N+](=O)[O-])c4)N[C@@H]([C@H]4CC[C@](C)(O)CC4)CO5)c(Oc4cc5cc[nH]c5nc4OC[C@@H]4COCCO4)c3)CC2)C1` (single isomer, unassigned) [Example D-251, 2-((6-(((S)-1,4-dioxan-2-yl)methoxy)-1H-pyrrolo[2,3-b]pyridin-5-yl)oxy)-N-(((S)-3-((1r,4S)-4-hydroxy-4-methylcyclohexyl)-5-nitro-3,4-dihydro-2H-benzo[b][1,4]oxazin-7-yl)sulfonyl)-4-(2-((R or S)-2-(2-isopropylphenyl)pyrrolidin-1-yl)-7-azaspiro[3.5]nonan-7-yl)benzamide], the IC50 came to 1 nM in test [1], 6 nM in test [2] and 1 nM in test [3].

Consider `CC(C)c1ccccc1[C@@H]1CCC[C@@H]1N1CC2(CCN(c3ccc(C(=O)NS(=O)(=O)c4ccc(NC[C@H]5CC[C@](C)(O)CC5)c([N+](=O)[O-])c4)c(Oc4cc5c(F)c[nH]c5nc4Cl)c3)CC2)C1` (single isomer, unassigned) [Example D-113, 2-((6-chloro-3-fluoro-1H-pyrrolo [2,3-b]pyridin-5-yl)oxy)-N-((4-((((1r,4r)-4-hydroxy-4-methylcyclohexyl)methyl)amino)-3-nitrophenyl)sulfonyl)-4-(2-((1S,2S or 1R,2R)-2-(2-isopropylphenyl)cyclopentyl)-2,7-diazaspiro[3.5]nonan-7-yl)benzamide], for which the IC50 was 1 nM in test [1], 19 nM in test [2] and 1 nM in test [3].

As for `CC(C)c1ccccc1[C@@H]1CCCN1C1CC2(CCN(c3ccc(C(=O)NS(=O)(=O)c4cc5c(c([N+](=O)[O-])c4)N[C@@H]([C@H]4CC[C@](C)(O)CC4)CO5)c(Oc4cc5cc[nH]c5nc4OC[C@@H]4COCCN4)c3)CC2)C1` (single isomer, unassigned) [Example D-214, N-(((S)-3-((1r,4S)-4-hydroxy-4-methylcyclohexyl)-5-nitro-3,4-dihydro-2H-benzo[b][1,4]oxazin-7-yl)sulfonyl)-4-(2-((R or S)-2-(2-isopropylphenyl)pyrrolidin-1-yl)-7-azaspiro[3.5]nonan-7-yl)-2-((6-(((S)-morpholin-3-yl)methoxy)-1H-pyrrolo[2,3-b]pyridin-5-yl)oxy)benzamide], the IC50 in test [1], in test [2] and in test [3] was 1 nM throughout.

As for `CC(C)c1ccccc1[C@@H]1CCC[C@@H]1N1CC2(CCN(c3ccc(C(=O)NS(=O)(=O)c4ccc(NC[C@H]5CC[C@](C)(O)CC5)c([N+](=O)[O-])c4)c(Oc4cc5c(F)c[nH]c5nc4F)c3)CC2)C1` (single isomer, unassigned) [Example D-90, 2-((3,6-difluoro-1H-pyrrolo[2,3-b]pyridin-5-yl)oxy)-N-((4-((1r,4r)-4-hydroxy-4-methylcyclohexyl)methyl)amino)-3-nitrophenyl) sulfonyl)-4-(2-((1S,2S or 1R,2R)-2-(2-isopropylphenyl) cyclopentyl)-2,7-diazaspiro[3.5] nonan-7-yl)benzamide], the values for the IC50 in test [1], in test [2] and in test [3] were 1 nM, 5 nM and 1 nM, respectively.

In the case of `CC(C)c1ccccc1[C@@H]1CCCN1C1CC2(CCN(c3ccc(C(=O)NS(=O)(=O)c4cc5c(c([N+](=O)[O-])c4)N[C@@H]([C@H]4CC[C@](C)(O)CC4)CO5)c(Oc4cc5cc[nH]c5nc4OCCN(C)C)c3)CC2)C1` (single isomer, unassigned) [Example D-60, 2-((6-(2-(dimethylamino)ethoxy)-1H-pyrrolo[2,3-b]pyridin-5-yl)oxy)-N-(((S)-3-((1r,4S)-4-hydroxy-4-methylcyclohexyl)-5-nitro-3,4-dihydro-2H-benzo[b][1,4]oxazin-7-yl)sulfonyl)-4-(2-((R or S)-2-(2-isopropylphenyl)pyrrolidin-1-yl)-7-azaspiro[3.5]nonan-7-yl)benzamide], the IC50 in test [1], in test [2] and in test [3] was 1 nM throughout.

Take `CCOc1nc2[nH]cc(F)c2cc1Oc1cc(N2CCC3(CC2)CN([C@H]2CCC[C@H]2c2ccccc2C(C)C)C3)ccc1C(=O)NS(=O)(=O)c1cnc(NC[C@H]2CC[C@](C)(O)CC2)c([N+](=O)[O-])c1` (relative stereo) [Example A-153, 2-((6-ethoxy-3-fluoro-1H-pyrrolo[2,3-b]pyridin-5-yl)oxy)-N-((6-(((1r,4r)-4-hydroxy-4-methylcyclohexyl)methyl)amino)-5-nitropyridin-3-yl) sulfonyl)-4-(2-((1S,2S or 1R,2R)-2-(2-isopropylphenyl)cyclo-pentyl)-2,7-diazaspiro[3.5]nonan-7-yl) benzamide]: the values for the IC50 in test [1], in test [2] and in test [3] were 1 nM, 25 nM and 6 nM, respectively.

As for `CC(C)c1ccccc1[C@@H]1CCCN1C1CC2(CCN(c3ccc(C(=O)NS(=O)(=O)c4cc5c(c([N+](=O)[O-])c4)N[C@@H]([C@H]4CC[C@](C)(O)CC4)CO5)c(Oc4cnc5[nH]cc(F)c5c4)c3)CC2)C1` (single isomer, unassigned) [Example D-7, 2-((3-fluoro-1H-pyrrolo[2,3-b]pyridin-5-yl)oxy)-N-(((S)-3-((1r,4S)-4-hydroxy-4-methylcyclohexyl)-5-nitro-3,4-dihydro-2H-benzo[b] [1,4]oxazin-7-yl)sulfonyl)-4-(2-((R or S)-2-(2-isopropylphenyl)pyrrolidin-1-yl)-7-azaspiro[3.5]nonan-7-yl)benzamide], the IC50 came out at 1 nM in test [1], 1 nM in test [2] and 14 nM in test [3].

With `CC(C)c1ccccc1[C@@H]1CCCN1C1CC2(CCN(c3ccc(C(=O)NS(=O)(=O)c4cc5c(c([N+](=O)[O-])c4)N[C@@H]([C@H]4CC[C@](C)(O)CC4)CO5)c(Oc4cc5c(F)c[nH]c5nc4F)c3)CC2)C1` (single isomer, unassigned) [Example D-55, 2-((3,6-difluoro-1H-pyrrolo[2,3-b]pyridin-5-yl)oxy)-N-(((S)-3-((1r,4S)-4-hydroxy-4-methylcyclohexyl)-5-nitro-3,4-dihydro-2H-benzo [b][1,4]oxazin-7-yl)sulfonyl)-4-(2-((R or S)-2-(2-isopropylphenyl)pyrrolidin-1-yl)-7-azaspiro[3.5]nonan-7-yl)benzamide], the IC50 was determined as 1 nM in test [1], 14 nM in test [2] and 19 nM in test [3].

Turning to `CC(C)c1ccccc1[C@@H]1CCCN1C1CC2(CCN(c3ccc(C(=O)NS(=O)(=O)c4cc5c(c([N+](=O)[O-])c4)N[C@@H]([C@H]4CC[C@](C)(O)CC4)CO5)c(Oc4cc5cc[nH]c5nc4OC[C@H]4CCN4C)c3)CC2)C1` (single isomer, unassigned) [Example D-123, N-(((S)-3-((1r,4S)-4-hydroxy-4-methylcyclohexyl)-5-nitro-3,4-dihydro-2H-benzo[b][1,4]oxazin-7-yl)sulfonyl)-4-(2-((R or S)-2-(2-isopropylphenyl)pyrrolidin-1-yl)-7-azaspiro[3.5]nonan-7-yl)-2-((6-(((7)-1-methylazetidin-2-yl)methoxy)-1H-pyrrolo[2,3-b]pyridin-5-yl)oxy)benzamide], the IC50 in test [1] turned out to be 1 nM; in test [2] it was 1 nM; in test [3], 11 nM.
